The text below walks through data of article PMC6025191, “Heteronemin, a Marine Sesterterpenoid-Type Metabolite, Induces Apoptosis in Prostate LNcap Cells via Oxidative and ER Stress Combined with the Inhibition of Topoisomerase II and Hsp90” (Marine Drugs, 2018).

In this test the target is T1, topoisomerase IIα (Homo sapiens, UniProt P11388).
T1 construct: gene TOP2A
Nature of the test: cell-free DNA cleavage assay with pHOT1 plasmid ([…], induction of linear DNA). Type of test: biochemical.

T1 sequence (P11388 whole entry): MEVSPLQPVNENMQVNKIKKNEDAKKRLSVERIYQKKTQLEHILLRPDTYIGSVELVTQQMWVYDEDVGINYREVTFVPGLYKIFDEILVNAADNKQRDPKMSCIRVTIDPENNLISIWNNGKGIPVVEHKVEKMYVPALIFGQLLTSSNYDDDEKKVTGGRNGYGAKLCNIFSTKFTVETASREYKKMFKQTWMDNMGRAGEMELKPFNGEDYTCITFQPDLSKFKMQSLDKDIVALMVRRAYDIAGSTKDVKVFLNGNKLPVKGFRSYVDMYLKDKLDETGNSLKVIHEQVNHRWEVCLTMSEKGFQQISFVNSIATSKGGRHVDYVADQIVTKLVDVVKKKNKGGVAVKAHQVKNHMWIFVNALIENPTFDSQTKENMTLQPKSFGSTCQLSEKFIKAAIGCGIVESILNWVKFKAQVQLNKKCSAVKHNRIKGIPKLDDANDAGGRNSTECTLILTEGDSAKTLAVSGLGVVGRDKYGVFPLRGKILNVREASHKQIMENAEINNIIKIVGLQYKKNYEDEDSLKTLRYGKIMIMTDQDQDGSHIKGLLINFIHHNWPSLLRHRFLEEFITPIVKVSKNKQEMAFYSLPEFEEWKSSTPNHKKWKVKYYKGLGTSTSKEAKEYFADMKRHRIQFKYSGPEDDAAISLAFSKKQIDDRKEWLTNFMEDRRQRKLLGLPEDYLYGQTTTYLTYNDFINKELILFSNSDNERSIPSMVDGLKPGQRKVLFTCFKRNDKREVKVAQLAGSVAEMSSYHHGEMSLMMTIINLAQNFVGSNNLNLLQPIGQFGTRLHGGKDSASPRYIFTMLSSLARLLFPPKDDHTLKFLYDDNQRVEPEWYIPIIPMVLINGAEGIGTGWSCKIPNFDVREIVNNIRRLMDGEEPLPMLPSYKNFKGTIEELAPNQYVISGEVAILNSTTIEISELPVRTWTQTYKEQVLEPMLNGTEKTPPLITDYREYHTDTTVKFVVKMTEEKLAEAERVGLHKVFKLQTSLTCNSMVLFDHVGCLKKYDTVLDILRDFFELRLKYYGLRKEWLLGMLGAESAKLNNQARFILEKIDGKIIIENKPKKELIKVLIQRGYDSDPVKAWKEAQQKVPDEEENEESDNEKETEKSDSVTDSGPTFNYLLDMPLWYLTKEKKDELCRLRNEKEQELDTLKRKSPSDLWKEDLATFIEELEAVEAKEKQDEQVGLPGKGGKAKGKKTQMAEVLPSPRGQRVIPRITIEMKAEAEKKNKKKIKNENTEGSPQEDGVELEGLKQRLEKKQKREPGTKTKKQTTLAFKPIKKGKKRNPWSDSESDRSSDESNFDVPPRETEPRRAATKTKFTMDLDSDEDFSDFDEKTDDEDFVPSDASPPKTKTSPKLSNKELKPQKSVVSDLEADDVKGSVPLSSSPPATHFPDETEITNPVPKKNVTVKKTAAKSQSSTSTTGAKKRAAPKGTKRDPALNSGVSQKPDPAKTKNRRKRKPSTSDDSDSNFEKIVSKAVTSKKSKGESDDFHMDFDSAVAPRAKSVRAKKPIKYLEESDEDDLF

Take `COc1cc([C@@H]2c3cc4c(cc3[C@@H](O[C@@H]3O[C@@H]5CO[C@@H](C)O[C@H]5[C@H](O)[C@H]3O)[C@H]3COC(=O)[C@H]23)OCO4)cc(OC)c1O` [etoposide]: the “cell-free DNA cleavage assay with pHOT1 plasmid (500 μM, induction of linear DNA)” value is given as “A linear DNA strand was observed upon treating the supercoiled pHOT1 plasmid DNA with etoposide, a standard topo II poison”.
